Measured values as given in patent US9302999B2, “Substituted triazoles as herbicides” (E. I. DU PONT DE NEMOURS AND COMPANY, priority 2012, dated 2016).

Columns and labels:
Waterhemp [1] = test: Test C postemergence: waterhemp; assay type: in vivo
Description: (§1) At the same time, plants selected from these crop and weed species and also barley (winter barley, Hordeum vulgare), canarygrass (Phalaris minor), chickweed (common chickweed, Stellaria media) windgrass (Apera spica-venti) and deadnettle (henbit deadnettle, Lamium amplexicaule) were planted in pots containing Redi-Earth® planting medium (Scotts Company, 14111 Scottslawn Road, Marysville, Ohio 43041) comprising spaghnum peat moss, vermiculite, wetting agent and starter nutrients and treated with postemergence applications of test chemicals formulated in the same manner. Plants ranged in height from 2 to 18 cm (1- to 4-leaf stage) for postemergence treatments.
(§2) Treated plants and controls were maintained in a greenhouse for 13 to 15 days, after which time all species were compared to controls and visually evaluated. Plant response ratings, summarized in Table C, are based on a scale of 0 to 100 where 0 is no effect and 100 is complete control. A dash (-) response means no test result.

Oilseed Rape [2] = test: Test C postemergence: oilseed rape; assay type: in vivo
Description: as §1, §2

[3] = system: barnyardgrass (Echinochloa crus-galli); test: Test C pre-/postemergence: barnyardgrass; assay type: in vivo; details: scale 0 to 100, 0 no effect, 100 complete control
Barnyardgrass = test: Test C postemergence: barnyardgrass; assay type: in vivo, Echinochloa crus-galli
Procedure, shortened: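 Greenhouse pot test; foliar postemergence treatment at 1- to 4-leaf stage. Rated visually at 13 to 15 days on a 0–100 control scale relative to untreated plants.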

Oilseed Rape [4] = test: Test C pre-/postemergence: oilseed rape; assay type: in vivo
Waterhemp [5] = test: Test C postemergence: waterhemp; assay type: in vivo, Amaranthus rudis
Description: (§3) Seeds of plant species selected from blackgrass (Alopecurus myosuroides), bromegrass, downy (downy bromegrass, Bromus tectorum), foxtail, green (green foxtail, Setaria viridis), ryegrass, Italian (Italian ryegrass, Lolium multiflorum), winter wheat (Triticum aestivum), wild oat (Avena fatua), galium (catchweed bedstraw, Galium aparine), bermudagrass (Cynodon dactylon), surinam grass (Brachiaria decumbens), cocklebur (common cocklebur, Xanthium strumarium), corn (Zea mays), large crabgrass (Digitaria sanguinalis), woolly cupgrass (Eriochloa villosa), foxtail, giant (giant foxtail, Setaria faberii), goosegrass (Eleusine indica), johnsongrass (Sorghum halepense), kochia (Kochia scoparia), lambsquarters (Chenopodium album), morningglory (Ipomoea coccinea), nightshade (eastern black nightshade, Solanum ptycanthum), nutsedge, yellow (yellow nutsedge, Cyperus esculentus), pigweed (Amaranthus retroflexus), ragweed (common ragweed, Ambrosia elation), soybean (Glycine max), common (oilseed) sunflower (Helianthus annuus), Russian thistle (Salsola kali) and velvetleaf (Abutilon theophrasti) were planted into a blend of loam soil and sand and treated preemergence with test chemicals formulated in a non-phytotoxic solvent mixture which included a surfactant.
as §1, §2

Oilseed Rape [6] = test: Test C preemergence: oilseed rape; assay type: in vivo, Brassica napus; details: 125 g ai/ha, scale 0 to 100, 0 no effect, 100 complete control
Oilseed Rape [7] = test: Test C postemergence: oilseed rape; assay type: in vivo, Brassica napus
Description: as §3, §1, §2

Waterhemp [8] = test: Test C pre-/postemergence: waterhemp; assay type: in vivo
Oilseed Rape [9] = test: Test C preemergence: oilseed rape; assay type: in vivo; details: scale of 0 to 100, 0 is no effect, 100 is complete control
Description: as §3, §2

[10] = 62 g ai/ha, scale 0 to 100 (0 no effect, 100 complete control)
[11] = 31 g ai/ha, scale 0 to 100 (0 no effect, 100 complete control)
[12] = Postemergence, 31 g ai/ha, scale 0 to 100 (0 no effect, 100 complete control)
[13] = Preemergence, 250 g ai/ha, scale 0 to 100, 0 no effect, 100 complete control
[14] = 125 g ai/ha, scale 0 to 100, 0 no effect, 100 complete control
[15] = 250 g ai/ha, scale 0 to 100 (0 no effect, 100 complete control)
[16] = Postemergence, 16 g ai/ha, scale 0 to 100, 0 no effect, 100 complete control

| SMILES | Plant response rating, Waterhemp (Waterhemp [1]; [10]) | Plant response rating, Oilseed Rape (Oilseed Rape [2]; [10]) | Plant response rating, Barnyardgrass ([3]; Preemergence, 250 g ai/ha) | Plant response rating, Barnyardgrass (Barnyardgrass; [11]) | Plant response rating, Barnyardgrass (Barnyardgrass; [10]) | Plant response rating, Barnyardgrass (Barnyardgrass; 250 g ai/ha, scale 0 to 100) | Plant response rating, Oilseed Rape (Oilseed Rape [4]; [12]) | Plant response rating, Oilseed Rape (Oilseed Rape [4]; [13]) | Plant response rating, Waterhemp (Waterhemp [5]; [14]) | Plant response rating, Waterhemp (Waterhemp [5]; [15]) | Plant response rating, Oilseed Rape (Oilseed Rape [6]) | Plant response rating, Oilseed Rape (Oilseed Rape [7]; [14]) | Plant response rating, Oilseed Rape (Oilseed Rape [7]; [15]) | Plant response rating, Waterhemp (Waterhemp [8]; [12]) | Plant response rating, Oilseed Rape (Oilseed Rape [9]; 62 g ai/ha) | Plant response rating, Waterhemp (Waterhemp [1]; [11]) | Plant response rating, Oilseed Rape (Oilseed Rape [2]; [11]) | Plant response rating, Oilseed Rape (Oilseed Rape [9]; 31 g ai/ha) | Plant response rating, Waterhemp (Waterhemp [1]; 250 g ai/ha, scale 0 to 100) | Plant response rating, Oilseed Rape (Oilseed Rape [2]; 250 g ai/ha, scale 0 to 100) | further results |
| --- | --- | --- | --- | --- | --- | --- | --- | --- | --- | --- | --- | --- | --- | --- | --- | --- | --- | --- | --- | --- | --- |
| CCCc1nn(-c2ccc(F)c(F)c2)nc1Oc1ccnc(C(F)(F)F)c1 [Compound 172] | 95 | 90 | 100 | 40 | 45 | 90 | 50 | 100 | 98 | 98 | 98 | 90 | 95 | 90 | 90 |  |  |  |  |  |  |
| CCCc1nn(-c2ccc(F)cc2)nc1Oc1ccnc(C(F)(F)F)c1 [Compound 168] | 90 | 70 | 100 | 40 | 75 | 95 | 40 | 100 | 95 | 95 | 100 | 90 | 95 | 80 | 100 |  |  |  |  |  |  |
| FCc1nn(-c2ccc(F)cc2)nc1Oc1ccnc(C(F)(F)F)c1 [Compound 160] | 98 | 95 |  | 20 | 30 |  |  |  | 98 |  | 80 | 95 |  |  | 80 | 95 | 95 | 5 |  |  | Plant response rating, Barnyardgrass ([3]; Postemergence, 16 g ai/ha): 15; Plant response rating, Oilseed Rape (Oilseed Rape [4]; [16]): 85; Plant response rating, Waterhemp (Waterhemp [8]; [16]): 95 |
| CCc1nn(-c2ccc(F)cc2)nc1Cc1ccnc(C(F)(F)F)c1 [Compound 154] | 98 | 90 | 100 | 15 | 25 | 40 |  | 100 | 98 |  | 90 | 95 |  |  | 90 | 90 | 80 | 5 | 98 | 95 | Plant response rating, Waterhemp (Waterhemp [8]; [13]): 100 |
| CCc1nn(-c2ccc(C(F)(F)F)cc2)nc1Cc1ccnc(C(F)(F)F)c1 [Compound 155] | 98 | 90 | 100 | 25 | 35 | 75 |  | 100 | 98 |  | 90 | 95 |  |  | 90 | 98 | 90 | 50 | 98 | 95 | Plant response rating, Waterhemp (Waterhemp [8]; [13]): 100 |
| CCOc1nn(-c2ccc(Cl)cc2)nc1Cc1ccnc(C(F)(F)F)c1 [Compound 188] | 100 | 90 | 100 | 75 | 95 | 100 | 40 | 100 | 100 | 100 | 100 | 90 | 95 | 70 | 70 |  |  |  |  |  |  |
